The subject of test [1] is vascular permeability induced by compound 48/80. The experiment in a line: Inhibition of vascular permeability induced by compound 48/80 (Evans blue). Format: in vivo. The settings on record: BALB/c mice, 1×10^9 CFU orally once a day for 3 days (control drugs 0.2 mg/mouse). As for the experimental part: It is known that itching-induced areas have increased vascular permeability. […] According to the same method as the above-described experiment for measurement of itching inhibitory activity, the drug was administered to the same mice. Next, physiological saline was injected subcutaneously into the back portion of the head of the mice of the normal group, and an itching inducer (50 μg of compound 48/80; Sigma, USA) was injected subcutaneously into the back portion of the head of the mice of the other test group. Next, 0.2 ml of 1% Evans blue solution (Sigma, USA) was injected into the tail vein, and after 1 hour, the mice were euthanized. The skin of the subcutaneously injected area was dissected, and incubated in 1 ml of 1N KOH at 37° C. overnight. On the next day, the incubated skin tissue was mixed with 4 ml of 0.6N phosphoric acid-acetone (5:13) mixture and centrifuged at 3000 rpm for 15 minutes, and the supernatant was collected and measured for absorbance at 620 nm. Inhibition (%) of vascular permeability was calculated using the following equation: Inhibition(%)={1−[absorbance of area treated with drug and itching inducer−absorbance of area not treated with itching inducer]/[absorbance of area treated with itching inducer−absorbance of area not treated with itching inducer]}×100

Test [2] relates to itching behavior induced by compound 48/80. As to the kind of experiment: Inhibition of itching induced by compound 48/80. The settings on record: BALB/c mice, 1×10^9 CFU orally once a day for 3 days (control drugs 0.2 mg/mouse). It counts as in vivo. As for the experimental part:
At 1 hour after the last administration of the drug, the mice were allowed to stand in an observation cage (24 cm×22 cm×24 cm) for 10 minutes so as to be acclimated to the environment, and then the back portion of the head was shaved. […] Sigma, USA) by a 29-gauge needle. […] Scratching the injection area with the back foot was regarded as the itching behavior, and scratching other portions was not regarded.

Test [3] relates to RBL-2H3 cell line (rat mast cell line). As to the kind of experiment: Inhibition of degranulation in IgE-sensitized RBL-2H3 cells. It counts as cell-based. The settings on record: RBL-2H3, lactic acid bacteria 1×10^4 CFU/ml.
Method: The RBL-2H3 cell line (rat mast cell line, the Korean Cell Line Bank, Cat. No. 22256) was cultured with DMEM (Dulbeccos' modified Eagle's medium, Sigma, 22256) containing 10% FBS (fetal bovine serum) and L-glutamine in a humidified 5% CO2 incubator at 37° C. The cells contained in the culture medium were floated using trypsin-EDTA solution, and the floated cells were isolated, collected and used in the experiment. The collected RBL-2H3 cells were dispensed into a 24-well plate at a density of 5×10^5 cells/well and sensitized by incubation with 0.5 μg/ml of mouse monoclonal IgE for 12 hours. The sensitized cells were washed with 0.5 ml of siraganian buffer (119 mM NaCl, 5 mM KCl, 0.4 mM MgCl2, 25 mM PIPES, 40 mM NaOH, pH 7.2), and then incubated with 0.16 ml of siraganian buffer (supplemented with 5.6 mM glucose, 1 mM CaCl2), 0.1% BSA) at 37° C. for 10 minutes. Next, lactic acid bacteria as a test drug were added to the cell culture to a concentration of 1×10^4 CFU/ml, or 0.04 ml of DSCG (disodium cromoglycate) as a control drug was added to the cell culture, and after 20 minutes, the cells were activated with 0.02 ml of antigen (1 μg/ml DNP-BSA) at 37° C. for 10 minutes. […] Next, the reaction was stopped by addition of 0.2 ml of 0.1M Na2CO3/NaHCO3, and the absorbance at 405 nm was measured by an ELISA analyzer.

Here are results for two compounds from patent US11771725B2, “Lactobacillus having various functions, and use thereof” (University-Industry Cooperation Group of Kyung Hee …, priority 2015, dated 2023).

Turning to `CN1CCCC(n2nc(Cc3ccc(Cl)cc3)c3ccccc3c2=O)CC1` (stereo not drawn) [Azelastine], the “Inhibition (%) vascular permeability” value in test [1] came to 68%. Besides, the “Inhibition (%) Itching” value in test [2] came to 65%.

`O=C([O-])c1cc(=O)c2c(OCC(O)COc3cccc4oc(C(=O)[O-])cc(=O)c34)cccc2o1.[Na+].[Na+]` [DSCG, disodium cromoglycate]: the “Inhibition (%) vascular permeability” value in test [1] is reported as 37%. Also, the “Inhibition (%) Degranulation” value in test [3] (first experiment) worked out at 62%. Besides, the “Degranulation inhibition (%)” value in test [3] (second experiment) is reported as 62%. Further, the “Inhibition (%) Itching” value in test [2] is 25%.
